≈ marks a conversion by molar mass, not a printed value. Calls of active or inactive are those of the source. No cut-off for these calls is given here.
How the values were obtained:
Rattus norvegicus [1] = assay: Effect on prothrombin time in rat at 1 to 100 mg/kg, po measured after 2 hrs; type: functional, organism-based
Rattus norvegicus [2] = assay: Anticoagulant activity in po dosed rat assessed as prolongation of activated partial thromboplastin time measured after 2 hrs; type: functional, organism-based
Plasma [3] = assay: Anticoagulant activity in human plasma assessed as concentration required to double activated partial thromboplastin time; type: functional
[4] = Cmax in rat at 1 mg/kg, po administered as cassette dose; type: ADME, organism-based; set-up: dose 1 mg/kg, route oral; conditions: in vivo
Coagulation factor X = Coagulation factor X (Homo sapiens, UniProt P00742)
Description: Inhibition of human coagulation factor 10a

[5] = Unbound plasma concentration in human at 10 uM measured after 4 hrs by equilibrium dialysis method; type: ADME, cell-free
[6] = Apparent permeability of the compound at 5 uM after 5 hrs by PAMPA; type: physicochemical
Coagulation factor IX [7] = target: Coagulation factor IX (Homo sapiens, UniProt P00740)
[8] = Oral bioavailability in rat at 10 mg/kg; type: ADME, organism-based; conditions: in vivo
Plasma [9] = assay: Anticoagulant activity in rat plasma assessed as concentration required to double activated partial thromboplastin time; type: functional
[10] = Solubility of the compound in phosphate buffer at pH 7.4 measured after 1.5 hrs by UV absorbance method; type: physicochemical
Cytochrome P450 2C19 = Cytochrome P450 2C19 (Homo sapiens, UniProt P33261); assay: Inhibition of CYP2C19 in liver microsomes (unknown origin) assessed as formation of 4-hydroxymephenytoin from S-mephenytoin in presence of NADPH by LC-MS/MS analysis; type: ADME
Coagulation factor IX [11] = target: Coagulation factor IX (Rattus norvegicus, UniProt P16296); assay: Inhibition of rat coagulation factor 9a
[12] = AUCt in rat at 1 mg/kg, iv; type: ADME, organism-based; conditions: in vivo
[13] = Unbound plasma concentration in dog at 10 uM measured after 4 hrs by equilibrium dialysis method; type: ADME, cell-free, Canis lupus familiaris
[14] = Half life in dog at 0.3 mg/kg, iv; type: ADME, organism-based, Canis lupus familiaris; conditions: in vivo
[15] = Apparent permeability in MDCK2-MDR1 cells at 5 uM after 1 hr by LC-MS/MS method; type: ADME, cell-based, Canis lupus familiaris; conditions: dog, MDCK-MDR1
Plasma [16] = assay: Effect on prothrombin time in rat plasma assessed as concentration required to double prothrombin time; type: functional
[17] = AUCt in rat at 10 mg/kg, po; type: ADME, organism-based; conditions: in vivo
[18] = Cmax in rat at 10 mg/kg, po; type: ADME, organism-based; set-up: dose 10 mg/kg, route oral; conditions: in vivo
Cytochrome P450 3A4 [19] = target: T1, Cytochrome P450 3A4 (Homo sapiens, UniProt P08684); assay: Inhibition of CYP3A4 in liver microsomes (unknown origin) assessed as formation of 1-hydroxymidazolam from midazolam in presence of NADPH by LC-MS/MS analysis; type: ADME
[20] = Volume of distribution at steady state in rat at 1 mg/kg, iv; type: ADME, organism-based; conditions: in vivo, read-out: Vdss
[21] = Total clearance in dog at 0.3 mg/kg, iv; type: ADME, organism-based, Canis lupus familiaris; conditions: in vivo
[22] = AUCt in dog at 0.3 mg/kg, iv; type: ADME, organism-based, Canis lupus familiaris; conditions: in vivo
[23] = Metabolic stability in human liver microsomes at 1 uM measured after 20 mins in presence of NADP+ by LC-MS/MS method; type: ADME, microsome; conditions: read-out: Stability
Cytochrome P450 2C9 = Cytochrome P450 2C9 (Homo sapiens, UniProt P11712); assay: Inhibition of CYP2C9 in liver microsomes (unknown origin) assessed as formation of 4-hydroxydiclofenac from diclofenac in presence of NADPH by LC-MS/MS analysis; type: ADME
[24] = Metabolic stability in dog liver microsomes at 1 uM measured after 20 mins in presence of NADP+ by LC-MS/MS method; type: ADME, Canis lupus familiaris, microsome; conditions: read-out: Stability
[25] = Unbound plasma concentration in rat at 10 uM measured after 4 hrs by equilibrium dialysis method; type: ADME, cell-free
Cytochrome P450 1A2 [26] = target: T2, Cytochrome P450 1A2 (Homo sapiens, UniProt P05177); assay: Induction of CYP1A2 in hepatocytes (unknown origin) assessed as 7-ethoxyresorufin O-dealkylation at 0.3 to 10 uM treated for 3 days; type: ADME, cell-based; conditions: 72 h
T2 sequence (P05177 whole entry): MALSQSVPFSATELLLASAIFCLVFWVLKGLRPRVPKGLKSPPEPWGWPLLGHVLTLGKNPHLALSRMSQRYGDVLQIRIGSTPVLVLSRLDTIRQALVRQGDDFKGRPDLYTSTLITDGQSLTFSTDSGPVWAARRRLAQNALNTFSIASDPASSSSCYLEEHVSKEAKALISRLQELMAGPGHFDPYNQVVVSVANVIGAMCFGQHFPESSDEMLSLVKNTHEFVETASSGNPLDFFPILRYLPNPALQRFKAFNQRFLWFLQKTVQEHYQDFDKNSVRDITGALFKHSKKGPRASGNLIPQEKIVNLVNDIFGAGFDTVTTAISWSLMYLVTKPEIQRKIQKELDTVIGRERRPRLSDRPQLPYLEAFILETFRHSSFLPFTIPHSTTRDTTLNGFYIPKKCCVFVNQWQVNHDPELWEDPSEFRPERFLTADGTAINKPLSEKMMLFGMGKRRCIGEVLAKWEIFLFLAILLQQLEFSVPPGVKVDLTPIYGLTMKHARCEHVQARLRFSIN

Cytochrome P450 1A2 [27] = target: T2, Cytochrome P450 1A2; assay: Inhibition of CYP1A2 in liver microsomes (unknown origin) assessed as formation of acetaminophen from phenacetin in presence of NADPH by LC-MS/MS analysis; type: ADME
[28] = Total clearance in rat at 1 mg/kg, iv; type: ADME, organism-based; conditions: in vivo
Plasma [29] = assay: Effect on prothrombin time in human plasma assessed as concentration required to double prothrombin time; type: functional
[30] = Tmax in rat at 10 mg/kg, po; type: ADME, organism-based; conditions: in vivo
[31] = Metabolic stability in rat liver microsomes at 1 uM measured after 20 mins in presence of NADP+ by LC-MS/MS method; type: ADME, microsome; conditions: read-out: Stability
Cytochrome P450 3A4 [32] = target: T1, Cytochrome P450 3A4; assay: Induction of CYP3A4 in hepatocytes (unknown origin) assessed as midazolam 1-hydroxylation at 0.3 to 10 uM treated for 3 days; type: ADME, cell-based; conditions: 72 h
[33] = Half life in rat at 1 mg/kg, iv; type: ADME, organism-based; conditions: in vivo
[34] = Volume of distribution at steady state in dog at 0.3 mg/kg, iv; type: ADME, organism-based, Canis lupus familiaris; conditions: in vivo, read-out: Vdss
Cytochrome P450 2D6 = Cytochrome P450 2D6 (Homo sapiens, UniProt P10635); assay: Inhibition of CYP2D6 in liver microsomes (unknown origin) assessed as formation of 1-hydroxybufuralol from bufuralol in presence of NADPH by LC-MS/MS analysis; type: ADME
[35] = Apparent permeability in MDCK cells at 5 uM after 1 hr by LC-MS/MS method; type: ADME, cell-based, Canis lupus familiaris; conditions: dog

Chain of Coagulation factor IX (Homo sapiens, UniProt P00740) (P00740 47-191 limits assumed): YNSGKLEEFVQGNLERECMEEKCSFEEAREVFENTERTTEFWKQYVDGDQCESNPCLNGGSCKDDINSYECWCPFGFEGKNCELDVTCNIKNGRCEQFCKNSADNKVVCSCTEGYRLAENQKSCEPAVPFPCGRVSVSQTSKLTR
Chain of Coagulation factor IX (Homo sapiens, UniProt P00740) (P00740 227-461 limits assumed): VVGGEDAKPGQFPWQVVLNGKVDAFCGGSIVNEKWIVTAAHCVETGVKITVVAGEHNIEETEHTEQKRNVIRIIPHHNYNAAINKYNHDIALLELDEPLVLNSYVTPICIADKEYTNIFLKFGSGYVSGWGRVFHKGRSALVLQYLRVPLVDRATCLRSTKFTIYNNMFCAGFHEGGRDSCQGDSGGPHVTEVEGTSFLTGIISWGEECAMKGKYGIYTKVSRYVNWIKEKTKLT
Chain of Coagulation factor X (P00742 41-179 limits assumed): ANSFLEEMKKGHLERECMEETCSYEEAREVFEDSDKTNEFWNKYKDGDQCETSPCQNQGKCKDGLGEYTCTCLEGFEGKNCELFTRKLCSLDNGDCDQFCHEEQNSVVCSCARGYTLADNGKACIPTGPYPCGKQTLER
Chain of Coagulation factor X (P00742 235-488 limits assumed): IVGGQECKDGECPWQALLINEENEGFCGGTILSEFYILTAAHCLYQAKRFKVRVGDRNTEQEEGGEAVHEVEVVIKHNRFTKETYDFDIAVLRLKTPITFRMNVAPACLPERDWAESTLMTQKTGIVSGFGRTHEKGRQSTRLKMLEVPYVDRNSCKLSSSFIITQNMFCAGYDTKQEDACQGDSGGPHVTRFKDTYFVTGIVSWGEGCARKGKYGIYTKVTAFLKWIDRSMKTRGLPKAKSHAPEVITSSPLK
T1 sequence (P08684 whole entry): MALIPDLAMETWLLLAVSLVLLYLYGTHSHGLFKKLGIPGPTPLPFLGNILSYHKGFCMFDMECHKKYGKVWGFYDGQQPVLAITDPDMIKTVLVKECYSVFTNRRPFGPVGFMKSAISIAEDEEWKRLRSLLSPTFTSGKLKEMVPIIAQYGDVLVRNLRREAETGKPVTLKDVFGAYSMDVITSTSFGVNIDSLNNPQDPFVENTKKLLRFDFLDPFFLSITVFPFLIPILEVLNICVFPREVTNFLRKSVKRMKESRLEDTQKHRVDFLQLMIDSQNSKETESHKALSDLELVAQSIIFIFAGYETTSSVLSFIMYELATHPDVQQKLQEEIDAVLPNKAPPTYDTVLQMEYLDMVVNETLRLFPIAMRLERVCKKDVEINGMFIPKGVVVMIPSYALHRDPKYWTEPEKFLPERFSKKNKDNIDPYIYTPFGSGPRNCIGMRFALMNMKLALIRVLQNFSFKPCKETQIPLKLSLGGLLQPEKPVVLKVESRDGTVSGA
Chain of Cytochrome P450 2C9 (P11712 whole entry): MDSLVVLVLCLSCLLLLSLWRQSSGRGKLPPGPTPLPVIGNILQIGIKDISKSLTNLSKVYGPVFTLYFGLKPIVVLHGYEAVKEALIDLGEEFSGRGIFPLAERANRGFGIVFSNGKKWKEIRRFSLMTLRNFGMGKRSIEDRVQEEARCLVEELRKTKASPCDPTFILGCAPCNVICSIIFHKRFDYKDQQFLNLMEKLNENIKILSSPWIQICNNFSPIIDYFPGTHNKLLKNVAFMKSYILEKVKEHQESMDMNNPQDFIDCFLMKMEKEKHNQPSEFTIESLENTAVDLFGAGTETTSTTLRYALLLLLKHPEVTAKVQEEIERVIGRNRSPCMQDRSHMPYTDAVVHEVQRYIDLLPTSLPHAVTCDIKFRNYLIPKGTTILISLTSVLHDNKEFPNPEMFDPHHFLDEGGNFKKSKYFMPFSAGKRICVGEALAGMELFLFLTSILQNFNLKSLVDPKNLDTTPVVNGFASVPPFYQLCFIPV
Chain of Cytochrome P450 2C19 (P33261 whole entry): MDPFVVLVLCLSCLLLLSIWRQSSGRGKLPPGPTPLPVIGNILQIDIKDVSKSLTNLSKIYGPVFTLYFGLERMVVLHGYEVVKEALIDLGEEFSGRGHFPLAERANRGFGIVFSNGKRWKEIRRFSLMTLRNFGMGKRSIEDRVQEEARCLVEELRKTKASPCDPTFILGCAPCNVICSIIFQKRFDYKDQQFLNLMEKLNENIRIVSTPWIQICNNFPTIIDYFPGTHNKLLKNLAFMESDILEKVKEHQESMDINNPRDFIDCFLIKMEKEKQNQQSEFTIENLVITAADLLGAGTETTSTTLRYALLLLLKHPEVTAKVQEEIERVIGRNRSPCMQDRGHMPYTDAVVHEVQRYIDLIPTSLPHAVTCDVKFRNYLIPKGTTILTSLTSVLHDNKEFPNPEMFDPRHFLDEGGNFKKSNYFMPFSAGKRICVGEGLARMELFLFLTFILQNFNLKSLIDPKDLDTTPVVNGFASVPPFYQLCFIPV
Chain of Cytochrome P450 2D6 (P10635 whole entry): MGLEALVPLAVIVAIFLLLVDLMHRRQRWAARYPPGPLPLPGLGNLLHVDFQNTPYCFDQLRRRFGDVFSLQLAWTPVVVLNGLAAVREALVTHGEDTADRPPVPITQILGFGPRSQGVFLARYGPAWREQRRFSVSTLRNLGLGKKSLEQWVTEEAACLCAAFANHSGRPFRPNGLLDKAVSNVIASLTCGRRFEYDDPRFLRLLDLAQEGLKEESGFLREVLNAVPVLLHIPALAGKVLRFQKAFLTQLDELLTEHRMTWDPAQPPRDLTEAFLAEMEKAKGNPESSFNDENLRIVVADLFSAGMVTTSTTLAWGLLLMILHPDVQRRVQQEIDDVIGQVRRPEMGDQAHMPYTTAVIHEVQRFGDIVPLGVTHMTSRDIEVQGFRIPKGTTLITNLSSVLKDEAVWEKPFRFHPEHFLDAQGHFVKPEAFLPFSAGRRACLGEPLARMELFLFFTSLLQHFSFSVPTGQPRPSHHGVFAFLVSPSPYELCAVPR
Chain of Coagulation factor IX (Rattus norvegicus, UniProt P16296) (P16296 40-185 limits assumed): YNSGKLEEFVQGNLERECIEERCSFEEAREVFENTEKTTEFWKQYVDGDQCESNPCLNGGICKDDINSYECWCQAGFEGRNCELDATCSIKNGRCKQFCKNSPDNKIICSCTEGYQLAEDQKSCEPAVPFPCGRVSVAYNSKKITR
Chain of Coagulation factor IX (Rattus norvegicus, UniProt P16296) (P16296 228-462 limits assumed): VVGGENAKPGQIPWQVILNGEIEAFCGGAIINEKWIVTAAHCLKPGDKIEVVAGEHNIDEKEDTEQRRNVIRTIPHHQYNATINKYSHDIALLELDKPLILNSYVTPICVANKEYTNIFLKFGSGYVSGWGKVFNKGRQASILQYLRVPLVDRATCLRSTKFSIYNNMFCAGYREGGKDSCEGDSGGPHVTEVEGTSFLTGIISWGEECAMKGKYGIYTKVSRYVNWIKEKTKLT

Structure (SMILES): O=C(NC[C@H]1CN(c2ccc(N3CCOCC3=O)cc2)C(=O)O1)c1ccc(Cl)s1
- Activity (Rattus norvegicus [1]): Active
- Activity (Rattus norvegicus [2]): Active

Structure (SMILES): Cn1ncn(-c2ccc(C(=O)N[C@@H]3CCN(c4ncc(Cl)c5c(N)noc45)C3)c(Cl)c2)c1=O
- 2aPTT (Plasma [3]): 13 µM
- Cmax [4]: 390 ng/mL
- IC50 (Coagulation factor X): > 100 µM
- fraction unbound at 4 h, 10 µM [5]: 0.016
- Papp at 5 h, 5 µM [6]: 10.3 ×10⁻⁶ cm/s
- IC50 (Coagulation factor IX [7]): 15 nM

Structure (SMILES): Nc1noc2c(N3CC[C@@H](NC(=O)c4ccc(-n5cnnc5)cc4Cl)C3)ccc(Cl)c12
- IC50 (Coagulation factor X): > 30 µM
- IC50 (Coagulation factor IX [7]): 32 nM

Structure (SMILES): Nc1noc2c(N3CC[C@@H](NC(=O)c4ccc(-n5cnc(CCO)c5)cc4Cl)C3)ncc(Cl)c12
- 2aPTT (Plasma [3]): 57 µM
- Cmax [4]: 210 ng/mL
- IC50 (Coagulation factor X): > 100 µM
- fraction unbound at 4 h, 10 µM [5]: 0.005
- Papp at 5 h, 5 µM [6]: 1.6 ×10⁻⁶ cm/s
- IC50 (Coagulation factor IX [7]): 13 nM

Structure (SMILES): Nc1noc2c(N3CC[C@@H](NC(=O)c4ccc(-c5ncccn5)cc4Cl)C3)ncc(Cl)c12
- IC50 (Coagulation factor X): > 100 µM
- IC50 (Coagulation factor IX [7]): > 3000 nM

Structure (SMILES): Cc1ncn(-c2ccc(C(=O)N[C@H]3[C@H]4CC[C@H]3N(c3ncc(Cl)c5cnoc35)C4)c(Cl)c2)n1
- bioavailability [8]: 51%
- 2aPTT (Plasma [9]): 6.2 µM
- solubility at 1.5 h [10]: 29 µM (≈ 14 µg/mL)
- IC50 (Cytochrome P450 2C19): > 10 µM
- IC50 (Coagulation factor IX [11]): 3.7 nM
- AUC(0-t) [12]: 1010 ng·h/mL
- fraction unbound at 4 h, 10 µM [13]: 0.054
- half-life [14]: 282 min
- Papp at 1 h, 5 µM [15]: 5.8 ×10⁻⁶ cm/s
- 2PT (Plasma [16]): >200 µM
- AUC(0-t) [17]: 5150 ng·h/mL
- Cmax [18]: 1600 ng/mL
- IC50 (Cytochrome P450 3A4 [19]): > 10 µM
- 2aPTT (Plasma [3]): 5.8 µM
- Vd [20]: 0.9 L/kg
- clearance [21]: 3.5 mL/min/kg
- AUC(0-t) [22]: 1410 ng·h/mL
- remaining at 20 min, 1 µM [23]: 11%
- IC50 (Cytochrome P450 2C9): > 10 µM
- remaining at 20 min, 1 µM [24]: 11%
- fraction unbound at 4 h, 10 µM [25]: 0.051
- Activity (Cytochrome P450 1A2 [26]): Not Active
- IC50 (Coagulation factor X): 31 µM
- IC50 (Cytochrome P450 1A2 [27]): > 10 µM
- clearance [28]: 16.5 mL/min/kg
- 2PT (Plasma [29]): >200 µM
- Tmax [30]: 1 h
- remaining at 20 min, 1 µM [31]: 24%
- fraction unbound at 4 h, 10 µM [5]: 0.041
- Activity (Cytochrome P450 3A4 [32]): Not Active
- Papp at 5 h, 5 µM [6]: 6.5 ×10⁻⁶ cm/s
- half-life [33]: 48 min
- Vd [34]: 1.3 L/kg
- IC50 (Coagulation factor IX [7]): 4.9 nM
- IC50 (Cytochrome P450 2D6): > 10 µM
- Papp at 1 h, 5 µM [35]: 14.5 ×10⁻⁶ cm/s

Structure (SMILES): Cn1cc(-c2ccc(C(=O)N[C@@H]3CCN(c4ncc(Cl)c5c(N)noc45)C3)c(Cl)c2)ccc1=O
- 2aPTT (Plasma [3]): 85 µM
- Cmax [4]: 510 ng/mL
- IC50 (Coagulation factor X): 20 µM
- fraction unbound at 4 h, 10 µM [5]: 0.004
- Papp at 5 h, 5 µM [6]: 6.5 ×10⁻⁶ cm/s
- IC50 (Coagulation factor IX [7]): 18 nM

Structure (SMILES): Cc1cc(N2CCC(NC(=O)c3ccc(-n4cnnc4)cc3Cl)C2)c2onc(N)c2c1 (racemic)
- IC50 (Coagulation factor X): > 100 µM
- IC50 (Coagulation factor IX [7]): 50 nM

Structure (SMILES): Nc1noc2c(N3CCC(NC(=O)c4ccc(-n5cnnc5)cc4Cl)C3)cccc12 (racemic)
- IC50 (Coagulation factor X): > 100 µM
- IC50 (Coagulation factor IX [7]): 98 nM

Structure (SMILES): Nc1noc2c(N3CCC(NC(=O)c4ccc(-n5cnnc5)cc4Cl)C3)cc(Cl)cc12 (racemic)
- IC50 (Coagulation factor X): > 100 µM
- IC50 (Coagulation factor IX [7]): 18 nM

Structure (SMILES): Nc1noc2c(N3CC[C@@H](NC(=O)c4ccc(-n5cnc6ccccc65)cc4Cl)C3)ncc(Cl)c12
- 2aPTT (Plasma [3]): 72 µM
- Cmax [4]: 110 ng/mL
- IC50 (Coagulation factor X): > 100 µM
- fraction unbound at 4 h, 10 µM [5]: 0.001
- Papp at 5 h, 5 µM [6]: 3.3 ×10⁻⁶ cm/s
- IC50 (Coagulation factor IX [7]): 32 nM

From ChEMBL document CHEMBL4017471, “Discovery of novel aminobenzisoxazole derivatives as orally available factor IXa inhibitors” (Bioorg Med Chem Lett, 2017)
